# Test results taken from US10286022B2, “Medicinal composition of extract of seed of emblica officinalis and method of preparing the same” (priority 2013, dated 2019).
# Experiments:
# Type in all cases: in vivo, rat
# [1] = tested on: Triton WR 1339 induced dyslipidemia in Albino rats (Sprague Dawley strain); test: Screening of hypolipidemic activity, Triton WR 1339 induced dyslipidemia model (Example 18)
# Procedure: Twenty four male Albino rats (Sprague Dawley strain) weighing approximate 250-300 gm were selected for the study. The animals were kept in the animal house maintained at temp 24±2° C., 65% relative humidity and 12 hr light/dark cycle. The rats were acclimatized for two weeks and during this period they had access to standard pellet diet and water ad libitum. After two weeks of acclimatization, all the rats were fasted overnight before injecting Triton WR 1339 (Tyloxapol) and administration of test extracts/standard. The animals were divided into four groups Following treatment was given to overnight fasted rats: • Group I: Normal control (vehicle only). • Group II: Triton WR 1339 (300 mg/kg, intraperitoneal). • Group III: Triton WR 1339 (300 mg/kg, intraperitoneal) followed by amla seed extract prepare as per example 1 (10 mg/kg, per oral). • Group IV: Triton WR 1339 (300 mg/kg, intraperitoneal) followed by Atorvastatin (10 mg/kg, per oral).
# (§1) The animals were deprived of food for next 24 hours but had free access to water ad libitum. After 24 hour of drug treatment 2 ml blood samples were collected from the retro orbital plexus. The blood was allowed to clot and then centrifuged at 3000 rpm for 10 min and the serum was carefully drawn and collected into separate tubes. The serum was analyzed for total cholesterol, triglycerides, high density lipoproteins (HDL), low density lipoproteins (LDL) and very low density lipoproteins (VLDL) levels using auto-analyzer.
# [2] = tested on: Triton WR 1339 induced dyslipidemia in Albino rats (Sprague Dawley strain); test: Hypolipidemic activity in different doses, Triton WR 1339 induced dyslipidemia model (Example 19)
# Procedure: Sixty male Albino rats (Sprague Dawley strain) weighing approximate 250-300 gm were selected for the study. The animals were kept in the animal house maintained at temp 24±2° C., 65% relative humidity and 12 hr light/dark cycle. The rats were acclimatized for two weeks and during this period they had access to standard pellet diet and water ad libitum. After two weeks of acclimatization, all the rats were fasted overnight before injecting Triton WR 1339 (Tyloxapol) and administration of test extracts/standard. The animals were divided into ten groups. Following treatment was given to overnight fasted rats: • Group I: Normal control (vehicle only). • Group II: Triton WR 1339 (300 mg/kg, intraperitoneal). • Group III: Triton WR 1339 (300 mg/kg, intraperitoneal) followed by amla seed extract prepare as per example 1 (10 mg/kg, per oral). • Group IV: Triton WR 1339 (300 mg/kg, intraperitoneal) followed by amla seed extract prepare as per example 1 (7.5 mg/kg, per oral). • Group V: Triton WR 1339 (300 mg/kg, intraperitoneal) followed by amla seed extract prepare as per example 1 (5 mg/kg, per oral). • Group VI: Triton WR 1339 (300 mg/kg, intraperitoneal) followed by amla seed extract prepare as per example 1 (2.5 mg/kg, per oral). • Group VII: Triton WR 1339 (300 mg/kg, intraperitoneal) followed by amla seed extract prepare as per example 1 (2 mg/kg, per oral). • Group VIII: Triton WR 1339 (300 mg/kg, intraperitoneal) followed by amla seed extract prepare as per example 1 (1 mg/kg, per oral). • Group IX: Triton WR 1339 (300 mg/kg, intraperitoneal) followed by amla seed extract prepare as per example 1 (0.5 mg/kg, per oral). • Group X: Triton WR 1339 (300 mg/kg, intraperitoneal) followed by atorvastatin (10 mg/kg. per oral).
# as §1
# [3] = tested on: Triton WR 1339 induced dyslipidemia in Albino rats (Sprague Dawley strain); test: Single dosage study compared with other amla extracts, Triton WR 1339 model (Example 21)
# Procedure: Forty eight male Albino rats (Sprague Dawley strain) weighing approximate 250-300 gm were selected for the study. The animals were kept in the animal house maintained at temp 24±2° C., 65% relative humidity and 12 hr light/dark cycle. The rats were acclimatized for two weeks and during this period they had access to standard pellet diet and water ad libitum. After two weeks of acclimatization, all the rats were fasted overnight before injecting Triton WR 1339 (Tyloxapol) and administration of test extracts/standard. The animals were divided into eight groups. Following treatment was given to overnight fasted rats: • Group I: Normal control (vehicle only). • Group II: Triton WR 1339 (300 mg/kg, intraperitoneal). • Group III: Triton WR 1339 (300 mg/kg, intraperitoneal) followed by amla seed extract prepared as per example 1 (2.5 mg/kg, per oral). • Group IV: Triton WR 1339 (300 mg/kg, intraperitoneal) followed by amla extract prepared as per example 3 (2.5 mg/kg, per oral). • Group V: Triton WR 1339 (300 mg/kg, intraperitoneal) followed by amla extract prepared as per example 4 (2.5 mg/kg, per oral). • Group VI: Triton WR 1339 (300 mg/kg, intraperitoneal) followed by amla extract prepared as per example 5 (2.5 mg/kg, per oral). • Group VII: Triton WR 1339 (300 mg/kg, intraperitoneal) followed by amla extract prepared as per example 6 (2.5 mg/kg, per oral). • Group VIII: Triton WR 1339 (300 mg/kg, intraperitoneal) followed by atorvastatin (10 mg/kg, per oral).
# as §1
# [4] = 24 h after Triton i.p. + 10 mg/kg p.o.
smiles,measurement,setting,value
CC(C)c1c(C(=O)Nc2ccccc2)c(-c2ccccc2)c(-c2ccc(F)cc2)n1CC[C@@H](O)C[C@@H](O)CC(=O)O [Atorvastatin],effect on cholesterol and triglyceride level,[1]; 10 mg/kg p.o.,effective in lowering the cholesterol as well as triglyceride level
same,HDL After,[1]; [4],32.37 mg/dL
same,LDL After,[1]; [4],77.61 mg/dL
same,TC After,[1]; [4],131.9 mg/dL
same,TG After,[1]; [4],109.67 mg/dL
same,VLDL After,[1]; [4],21.93 mg/dL
same,HDL Before,"[1]; baseline, 10 mg/kg p.o. group",29.13 mg/dL
same,LDL Before,"[1]; baseline, 10 mg/kg p.o. group",62.43 mg/dL
same,TC Before,"[1]; baseline, 10 mg/kg p.o. group",100.4 mg/dL
same,TG Before,"[1]; baseline, 10 mg/kg p.o. group",44.26 mg/dL
same,VLDL Before,"[1]; baseline, 10 mg/kg p.o. group",8.85 mg/dL
same,HDL After,[2]; [4],39.83 mg/dL
same,LDL After,[2]; [4],60.23 mg/dL
same,TC After,[2]; [4],120.83 mg/dL
same,TG After,[2]; [4],103.86 mg/dL
same,VLDL After,[2]; [4],20.77 mg/dL
same,effect on cholesterol and triglyceride level,"[2]; amla seed extract 0.5 to 10 mg/kg p.o., atorvastatin 10 mg/kg p.o.",effective in lowering the cholesterol as well as triglyceride level
same,HDL Before,"[2]; baseline, 10 mg/kg p.o. group",31.66 mg/dL
same,LDL Before,"[2]; baseline, 10 mg/kg p.o. group",47.75 mg/dL
same,TC Before,"[2]; baseline, 10 mg/kg p.o. group",87.43 mg/dL
same,TG Before,"[2]; baseline, 10 mg/kg p.o. group",39.9 mg/dL
same,VLDL Before,"[2]; baseline, 10 mg/kg p.o. group",7.98 mg/dL
same,HDL After,[3]; [4],36.66 mg/dL
same,LDL After,[3]; [4],43.67 mg/dL
same,TC After,[3]; [4],122.54 mg/dL
same,TG After,[3]; [4],211.06 mg/dL
same,VLDL After,[3]; [4],42.21 mg/dL
same,HDL Before,"[3]; baseline, 10 mg/kg p.o. group",39.51 mg/dL
same,LDL Before,"[3]; baseline, 10 mg/kg p.o. group",51.00 mg/dL
same,TC Before,"[3]; baseline, 10 mg/kg p.o. group",99.83 mg/dL
same,TG Before,"[3]; baseline, 10 mg/kg p.o. group",46.59 mg/dL
same,VLDL Before,"[3]; baseline, 10 mg/kg p.o. group",9.31 mg/dL
same,effect on cholesterol and triglyceride level,"[3]; extracts 2.5 mg/kg, atorvastatin 10 mg/kg p.o.",less effective when compared with the amla seed extract
